Like-named read-outs stand apart in the source and are kept apart here.
Target: T1, SIRT1 (Homo sapiens, UniProt Q96EB6)
T1 sequence (Q96EB6 1-747): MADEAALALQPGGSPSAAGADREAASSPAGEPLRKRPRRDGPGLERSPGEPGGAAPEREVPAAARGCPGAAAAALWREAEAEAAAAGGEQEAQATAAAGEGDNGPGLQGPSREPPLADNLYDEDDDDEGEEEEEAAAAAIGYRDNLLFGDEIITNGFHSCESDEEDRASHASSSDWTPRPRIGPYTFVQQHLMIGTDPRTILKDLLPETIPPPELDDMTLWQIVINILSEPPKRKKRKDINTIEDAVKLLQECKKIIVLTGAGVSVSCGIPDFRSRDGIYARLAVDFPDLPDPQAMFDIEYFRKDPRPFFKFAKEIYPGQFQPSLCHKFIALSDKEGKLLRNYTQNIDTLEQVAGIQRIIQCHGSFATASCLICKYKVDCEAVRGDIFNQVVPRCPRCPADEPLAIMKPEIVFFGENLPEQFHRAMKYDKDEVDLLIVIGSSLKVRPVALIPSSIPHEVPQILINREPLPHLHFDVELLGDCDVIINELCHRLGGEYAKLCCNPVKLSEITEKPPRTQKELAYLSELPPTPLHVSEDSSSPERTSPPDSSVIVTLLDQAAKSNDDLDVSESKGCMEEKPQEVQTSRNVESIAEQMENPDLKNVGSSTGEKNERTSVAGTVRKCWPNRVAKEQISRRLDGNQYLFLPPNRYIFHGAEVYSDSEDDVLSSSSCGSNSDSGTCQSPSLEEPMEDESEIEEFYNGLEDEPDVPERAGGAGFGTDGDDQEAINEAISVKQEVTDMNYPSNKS
Assay: TAMRA based mass spectrometry assay of SIRT1 activity
Type: biochemical
Settings: for Emax: read-out: TAMRA % Fold Act
In short: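 Deacetylation of a biotinylated, TAMRA-tagged p53-based peptide (0.5 μM) by 10 nM His-tagged SIRT1 with 120 μM βNAD+, 25 °C for 25 min, pH 8 Tris-acetate buffer, across a compound concentration range. Quenched by formic acid and read by mass spec as product peptide or OAADPR; activity relative to DMSO reactions, nicotinamide defining maximal inhibition.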

[1] = TAMRA assay, concentration giving 150% activation of SIRT1
[2] = TAMRA assay, percent maximum fold activation
[3] = TAMRA peptide substrate, concentration giving 150% activation of SIRT1
[4] = TAMRA peptide substrate, percent maximum fold activation
[5] = concentration of test compound giving 150% activation of SIRT1, TAMRA peptide substrate
[6] = percent maximum fold activation of SIRT1, TAMRA peptide substrate

Compound: Cc1cc(NC(=O)c2cnc3ccc(-c4ccccc4OC[C@H](O)CO)nn23)cc(C)n1 [Compound 805]
- TAMRA EC1.5 (μM) [1]: A (EC1.5<1 μM)
- Emax [2]: ≥ 350%

Compound: Cc1nc2c(C)cc(-c3ccccc3OC(F)(F)F)nn2c1C(=O)Nc1ccc(F)cn1 [Compound 495]
- TAMRA EC1.5 [3]: A (EC1.5<1 μM)
- Emax [4]: < 350%

Compound: COc1ccc(NC(=O)c2c(C)nc3ccc(-c4ccccc4C)nn23)nn1 [Compound 720]
- TAMRA EC1.5 (μM) [1]: B (EC1.5 1-25 μM)
- Emax [2]: ≥ 350%

Compound: O=C(Nc1cccc(OCC(O)CO)n1)c1c(O)nc2ccc(-c3ccccc3C(F)(F)F)nn12 (centres unmarked) [Compound 344]
- TAMRA EC1.5 (μM) [1]: B (EC1.5 1-25 μM)
- Emax [2]: < 350%

Compound: O=C(Nc1cnn2ccc(-c3ccccc3OC(F)(F)F)nc12)c1cccc(-n2cnnc2)n1 [Compound 769]
- TAMRA EC1.5 (μM) [1]: A (EC1.5<1 μM)
- Emax [2]: ≥ 350%

Compound: Cc1cc(NC(=O)c2cnn3ccc(-c4ccccc4OC(F)(F)F)nc23)cc(C)n1 [Compound 611]
- TAMRA EC1.5 (μM) [1]: A (EC1.5<1 μM)
- Emax [2]: ≥ 350%

Compound: Cc1cncc(NC(=O)c2c(C)nn3ccc(-c4ccccc4C(F)(F)F)nc23)c1 [Compound 638]
- TAMRA EC1.5 (μM) [1]: A (EC1.5<1 μM)
- Emax [2]: ≥ 350%

Compound: Cc1cc(C)nc(NC(=O)c2cnc3ccc(N4CC[C@H](N(C)C)C4)nn23)c1 [Compound 512]
- TAMRA EC1.5 [3]: B (EC1.5 1-25 μM)
- Emax [4]: < 350%

Compound: O=C(Nc1nccs1)c1cnc2ccc(-c3ccccc3C(F)F)nn12 [Compound 33, 6-(2-(difluoromethyl)phenyl)-N-(thiazol-2-yl)imidazo[1,2-b]pyridazine-3-carboxamide]
- TAMRA EC1.5 (μM) [5]: B (EC1.5 1-25 μM)
- Emax [6]: < 350%

Compound: O=C(Nc1cccc(CN2CCC(F)(F)CC2)n1)c1cnc2ccc(-c3ccccc3C(F)(F)F)nn12 [Compound 391]
- TAMRA EC1.5 (μM) [1]: A (EC1.5<1 μM)
- Emax [2]: ≥ 350%

Compound: Cc1noc(C)c1-c1ccc2ncc(C(=O)Nc3ccnc(N4CCC4)c3)n2n1 [Compound 55]
- TAMRA EC1.5 (μM) [5]: C (EC1.5>25 μM)
- Emax [6]: < 350%

Compound: CCOc1n[nH]c(NC(=O)c2c(C)nc3ccc(-c4ccccc4C(F)(F)F)nn23)n1 [Compound 676]
- TAMRA EC1.5 (μM) [1]: A (EC1.5<1 μM)
- Emax [2]: ≥ 350%

Compound: CCOc1nccc(NC(=O)c2cnn3ccc(-c4ccccc4C(F)(F)F)nc23)n1 [Compound 807]
- TAMRA EC1.5 (μM) [1]: A (EC1.5<1 μM)
- Emax [2]: ≥ 350%

Compound: O=C(Nc1ccnc(N2CC3(CCO3)C2)n1)c1cnc2ccc(-c3ccccc3C(F)(F)F)nn12 [Compound 592]
- TAMRA EC1.5 [3]: A (EC1.5<1 μM)
- Emax [4]: ≥ 350%

Compound: O=C(Nc1cnc2ccc(-c3ccccc3Cl)nn12)c1ccncn1 [Compound 289]
- TAMRA EC1.5 (μM) [1]: B (EC1.5 1-25 μM)
- Emax [2]: < 350%

Compound: Cc1ccc(NC(=O)c2c(C)nn3ccc(-c4ccccc4C(F)(F)F)nc23)cn1 [Compound 637]
- TAMRA EC1.5 (μM) [1]: A (EC1.5<1 μM)
- Emax [2]: ≥ 350%

Compound: Cc1nc2ccc(-c3ccccc3C(F)(F)F)nn2c1C(=O)Nc1cnncn1 [Compound 667]
- TAMRA EC1.5 (μM) [1]: A (EC1.5<1 μM)
- Emax [2]: ≥ 350%

Compound: Cc1nc2ccc(-c3ccccc3C(F)(F)F)nn2c1NC(=O)c1cccc(OCC(O)CO)n1 (centres unmarked) [Compound 384]
- TAMRA EC1.5 (μM) [1]: B (EC1.5 1-25 μM)
- Emax [2]: < 350%

Compound: Cc1cc(C)nc(C(=O)Nc2cnc3c(C)c(C)c(-c4ccccc4Cl)nn23)n1 [Compound 388]
- TAMRA EC1.5 (μM) [1]: A (EC1.5<1 μM)
- Emax [2]: ≥ 350%

Compound: O=C(Nc1ccccn1)c1cnc2ccc(-c3ccccc3C(F)(F)F)nn12 [Compound 16]
- TAMRA EC1.5 (μM) [5]: A (EC1.5<1 μM)
- Emax [6]: ≥ 350%

Compound: O=C(Nc1nccc(OCC(O)CO)n1)c1cnc2ccc(-c3ccccc3C(F)(F)F)nn12 (centres unmarked) [Compound 226]
- TAMRA EC1.5 (μM) [1]: B (EC1.5 1-25 μM)
- Emax [2]: ≥ 350%

Compound: Cc1nc2c(C)cc(-c3ccccc3C(F)(F)F)nn2c1C(=O)Nc1ccnc(OC2CCOCC2)n1 [Compound 593]
- TAMRA EC1.5 [3]: A (EC1.5<1 μM)
- Emax [4]: ≥ 350%

Compound: Cc1nccc(NC(=O)c2cnn3ccc(-c4ccccc4OC(F)(F)F)nc23)c1C [Compound 613]
- TAMRA EC1.5 (μM) [1]: A (EC1.5<1 μM)
- Emax [2]: < 350%

Compound: CS(=O)(=O)c1ccccc1-c1ccc2ncc(C(=O)Nc3cccc(N4CCOCC4)n3)n2n1 [Compound 185]
- TAMRA EC1.5 (μM) [5]: B (EC1.5 1-25 μM)
- Emax [6]: < 350%

Compound: O=C(Nc1cnc2ccc(-c3ccccc3F)nn12)c1cccc(N2CCC2)n1 [Compound 302]
- TAMRA EC1.5 (μM) [1]: A (EC1.5<1 μM)
- Emax [2]: ≥ 350%

Compound: Cc1cc(NC(=O)c2cnc3ccc(-c4cccc(OCC(O)CO)c4)nn23)ccn1 (centres unmarked) [Compound 374]
- TAMRA EC1.5 (μM) [1]: B (EC1.5 1-25 μM)
- Emax [2]: < 350%

Compound: Cc1ccncc1NC(=O)c1c(C)nn2ccc(-c3ccccc3C(F)(F)F)nc12 [Compound 649]
- TAMRA EC1.5 (μM) [1]: A (EC1.5<1 μM)
- Emax [2]: < 350%

Compound: Cc1nc(NC(=O)c2c(C)nn3ccc(-c4ccccc4C(F)(F)F)nc23)sc1C [Compound 651]
- TAMRA EC1.5 (μM) [1]: A (EC1.5<1 μM)
- Emax [2]: ≥ 350%

Compound: Cc1nc(NC(=O)c2cnc3ccc(-c4ccccc4C(F)(F)F)nn23)sc1C [Compound 237]
- TAMRA EC1.5 (μM) [1]: A (EC1.5<1 μM)
- Emax [2]: ≥ 350%

Compound: Cc1cc(C(=O)Nc2cnn3ccc(-c4ccccc4OC(F)(F)F)nc23)nc(C)n1 [Compound 727]
- TAMRA EC1.5 (μM) [1]: A (EC1.5<1 μM)
- Emax [2]: ≥ 350%

Compound: O=C(Nc1cnc2ccc(-c3ccccc3F)nn12)c1cnccn1 [Compound 280]
- TAMRA EC1.5 (μM) [1]: B (EC1.5 1-25 μM)
- Emax [2]: < 350%

Compound: Cc1nn2ccc(-c3ccccc3C(F)(F)F)nc2c1NC(=O)c1ccncc1 [Compound 569]
- TAMRA EC1.5 [3]: C (EC1.5>25 μM)
- Emax [4]: < 350%

Compound: Cc1nc2ccc(-c3ccccc3OC(F)(F)F)nn2c1C(=O)Nc1cnccn1 [Compound 471]
- TAMRA EC1.5 [3]: A (EC1.5<1 μM)
- Emax [4]: ≥ 350%

Compound: Cc1nc(NC(=O)c2c(C)nc3c(C)cc(-c4ccccc4OC(F)(F)F)nn23)sc1C [Compound 482]
- TAMRA EC1.5 [3]: A (EC1.5<1 μM)
- Emax [4]: ≥ 350%

Compound: Cc1nc2ccc(-c3ccccc3OC[C@H](O)CO)nn2c1C(=O)Nc1ccncn1 [Compound 774]
- TAMRA EC1.5 (μM) [1]: A (EC1.5<1 μM)
- Emax [2]: < 350%

Compound: Cc1cc(-c2ccccc2C(F)(F)F)nn2c(NC(=O)c3cccc(N4CCC4)n3)cnc12 [Compound 426]
- TAMRA EC1.5 [3]: A (EC1.5<1 μM)
- Emax [4]: ≥ 350%

Compound: Cc1nc2ccc(-c3ccccc3C(F)(F)F)nn2c1NC(=O)c1ncccn1 [Compound 378]
- TAMRA EC1.5 (μM) [1]: B (EC1.5 1-25 μM)
- Emax [2]: ≥ 350%

Compound: O=C(Nc1cccc(OCC(F)(F)F)n1)c1cnc2ccc(-c3ccccc3F)nn12 [Compound 258]
- TAMRA EC1.5 (μM) [1]: C (EC1.5>25 μM)
- Emax [2]: < 350%

Compound: Cc1cnc(NC(=O)c2cnn3ccc(-c4ccccc4OC(F)(F)F)nc23)c(C)n1 [Compound 689]
- TAMRA EC1.5 (μM) [1]: C (EC1.5>25 μM)
- Emax [2]: < 350%

Compound: O=C(Nc1cccc(CN2CCOCC2)n1)c1cnc2ccc(-c3ccccc3C(F)(F)F)nn12 [Compound 19, N-(6-(morpholinomethyl)pyridin-2-yl)-6-(2-(trifluoromethyl)phenyl)imidazo[1,2-b]pyridazine-3-carboxamide]
- TAMRA EC1.5 (μM) [5]: A (EC1.5<1 μM)
- Emax [6]: ≥ 350%

Compound: Cc1cccc(C(=O)Nc2cnn3ccc(-c4ccccc4C(F)(F)F)nc23)n1 [Compound 522]
- TAMRA EC1.5 [3]: A (EC1.5<1 μM)
- Emax [4]: ≥ 350%

Compound: Cc1nc2ccc(-c3ccccc3Br)nn2c1C(=O)Nc1cccnn1 [Compound 763]
- TAMRA EC1.5 (μM) [1]: A (EC1.5<1 μM)
- Emax [2]: ≥ 350%

Compound: O=C(Nc1cccnc1)c1cnc2ccc(-c3ccccc3C(F)(F)F)nn12 [Compound 108]
- TAMRA EC1.5 (μM) [5]: B (EC1.5 1-25 μM)
- Emax [6]: < 350%

Compound: O=C(Nc1cccc(N2CCOCC2)n1)c1cnc2ccc(-c3c(F)cccc3F)nn12 [Compound 168]
- TAMRA EC1.5 (μM) [5]: A (EC1.5<1 μM)
- Emax [6]: ≥ 350%

Compound: O=C(Nc1cccc(OC[C@H](O)CO)n1)c1cnc2ccc(-c3ccccc3C(F)(F)F)nn12 [Compound 553]
- TAMRA EC1.5 [3]: A (EC1.5<1 μM)
- Emax [4]: ≥ 350%

Compound: O=C(Nc1cccc(CN2CCOCC2)n1)c1cnc2ccc(-c3ccccc3F)nn12 [Compound 135]
- TAMRA EC1.5 (μM) [5]: A (EC1.5<1 μM)
- Emax [6]: ≥ 350%

Compound: O=C(Nc1cc(N2CCOCC2)ccn1)c1cnc2ccc(-c3ccccc3C(F)(F)F)nn12 [Compound 176]
- TAMRA EC1.5 (μM) [5]: A (EC1.5<1 μM)
- Emax [6]: < 350%

Compound: Cc1ccc(NC(=O)c2cnn3ccc(-c4ccccc4C(F)(F)F)nc23)cn1 [Compound 631]
- TAMRA EC1.5 (μM) [1]: A (EC1.5<1 μM)
- Emax [2]: ≥ 350%

Compound: CCOc1ccc(NC(=O)c2c(C)nc3ccc(-c4ccccc4C)nn23)nn1 [Compound 721]
- TAMRA EC1.5 (μM) [1]: B (EC1.5 1-25 μM)
- Emax [2]: < 350%
